Among the data in patent publication US12275731B2, “Azaindole inhibitors of wild-type and mutant forms of LRRK2” (DANA-FARBER CANCER INSTITUTE, INC., priority 2018, dated 2025) are remaining binding values, retold here.

Holding throughout (test): KinomeScan profiling
Holding throughout (assay type): binding

In assay [1] the target is T1, ABL1(T315I)-nonphosphorylated (Homo sapiens, UniProt P00519, T315I).
T1 construct: purchased KinomeScan®
To be noted: read-out: % control. In outline:
(§1)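 Percent-of-control values derive from RLU, calculated as (test − positive)/(negative − positive) × 100, where DMSO defines 100% and a positive control compound defines 0%. Each compound was tested at 1 μM in the 468-kinase panel; sub-35% readings indicate activity.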

The next assay deals with T2, ALK (Homo sapiens, UniProt Q9UM73).
T2 construct: purchased KinomeScan®
To be noted: read-out: % control. In outline: as §1

The next assay concerns the target T3, BIKE (Homo sapiens, UniProt Q9NSY1).
T3 construct: purchased KinomeScan®
To be noted: read-out: % control. In outline:
as §1

A further assay has as its target CAMK1G (Homo sapiens, UniProt Q96NX5). To be noted: read-out: % control. Summed up: as §1
In assay [2] the target is EGFR(L747-E749del, A750P) (Homo sapiens, UniProt P00533, A750P/DEL747-749). To be noted: read-out: % control. Summed up:
as §1

The target of the next assay is FER (Homo sapiens, UniProt P16591). The note with it: read-out: % control. Summed up: as §1
Another assay addresses FLT1 (Homo sapiens, UniProt P17948). To be noted: FLT1, 1 μM; read-out: % control. In outline:
as §1

In another assay the target is T4, HIPK4 (Homo sapiens, UniProt Q8NE63).
T4 sequence (Q8NE63 1-616): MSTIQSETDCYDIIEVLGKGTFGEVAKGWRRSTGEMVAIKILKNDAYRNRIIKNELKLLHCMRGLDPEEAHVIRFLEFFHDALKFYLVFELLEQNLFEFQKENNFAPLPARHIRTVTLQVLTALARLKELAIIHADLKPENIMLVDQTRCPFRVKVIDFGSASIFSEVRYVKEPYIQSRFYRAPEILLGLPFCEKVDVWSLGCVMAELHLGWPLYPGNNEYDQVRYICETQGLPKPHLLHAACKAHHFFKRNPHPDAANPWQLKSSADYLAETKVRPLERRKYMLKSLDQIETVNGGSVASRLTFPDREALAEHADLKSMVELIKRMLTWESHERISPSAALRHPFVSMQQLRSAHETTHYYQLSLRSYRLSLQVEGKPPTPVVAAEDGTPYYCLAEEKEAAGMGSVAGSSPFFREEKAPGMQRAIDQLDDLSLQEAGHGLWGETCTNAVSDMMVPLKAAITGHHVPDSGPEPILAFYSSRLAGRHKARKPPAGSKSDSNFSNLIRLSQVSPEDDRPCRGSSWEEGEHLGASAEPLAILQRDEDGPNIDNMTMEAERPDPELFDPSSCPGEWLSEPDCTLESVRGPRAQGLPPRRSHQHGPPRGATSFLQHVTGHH
To be noted: HIPK4, 1 μM; read-out: % control. Summed up:
as §1

The next assay deals with T5, IKK-epsilon (Homo sapiens, UniProt Q14164).
T5 construct: purchased KinomeScan®
T5 sequence (Q14164 1-716): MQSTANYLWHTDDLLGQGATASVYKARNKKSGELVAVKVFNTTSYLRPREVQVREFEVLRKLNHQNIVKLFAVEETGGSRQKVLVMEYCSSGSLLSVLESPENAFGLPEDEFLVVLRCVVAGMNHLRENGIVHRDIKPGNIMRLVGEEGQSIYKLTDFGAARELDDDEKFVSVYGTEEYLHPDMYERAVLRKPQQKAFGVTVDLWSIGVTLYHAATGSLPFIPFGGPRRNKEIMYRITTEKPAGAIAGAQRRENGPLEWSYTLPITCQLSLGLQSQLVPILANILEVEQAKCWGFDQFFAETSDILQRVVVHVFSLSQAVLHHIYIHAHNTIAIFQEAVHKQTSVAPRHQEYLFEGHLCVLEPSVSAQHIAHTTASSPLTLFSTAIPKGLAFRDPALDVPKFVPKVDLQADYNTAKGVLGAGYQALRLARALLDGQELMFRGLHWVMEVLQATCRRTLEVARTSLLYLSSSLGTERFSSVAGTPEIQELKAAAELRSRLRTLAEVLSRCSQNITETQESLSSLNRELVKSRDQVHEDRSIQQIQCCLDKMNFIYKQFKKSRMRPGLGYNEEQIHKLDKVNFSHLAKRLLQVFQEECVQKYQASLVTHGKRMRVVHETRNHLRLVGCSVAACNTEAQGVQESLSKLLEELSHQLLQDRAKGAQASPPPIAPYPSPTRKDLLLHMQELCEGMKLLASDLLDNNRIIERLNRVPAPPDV
The note with it: read-out: % control. Summed up: as §1

A further assay concerns the target MAP3K4 (Homo sapiens, UniProt Q9Y6R4). To be noted: MAP3K4, 1 μM; read-out: % control. In outline: as §1
In another assay the target is PFTAIRE2 (Homo sapiens, UniProt Q96Q40). The note with it: PFTAIRE2, 1 μM; read-out: % control. Summed up: as §1
The target in another assay is T6, PIM2 (Homo sapiens, UniProt Q9P1W9).
T6 construct: purchased KinomeScan® (panel service)
To be noted: PIM2, 1 μM; read-out: % control. Summed up:
as §1

A further assay addresses T7, SGK3 (Homo sapiens, UniProt Q96BR1).
T7 construct: purchased KinomeScan® (panel service)
T7 sequence (Q96BR1 1-496): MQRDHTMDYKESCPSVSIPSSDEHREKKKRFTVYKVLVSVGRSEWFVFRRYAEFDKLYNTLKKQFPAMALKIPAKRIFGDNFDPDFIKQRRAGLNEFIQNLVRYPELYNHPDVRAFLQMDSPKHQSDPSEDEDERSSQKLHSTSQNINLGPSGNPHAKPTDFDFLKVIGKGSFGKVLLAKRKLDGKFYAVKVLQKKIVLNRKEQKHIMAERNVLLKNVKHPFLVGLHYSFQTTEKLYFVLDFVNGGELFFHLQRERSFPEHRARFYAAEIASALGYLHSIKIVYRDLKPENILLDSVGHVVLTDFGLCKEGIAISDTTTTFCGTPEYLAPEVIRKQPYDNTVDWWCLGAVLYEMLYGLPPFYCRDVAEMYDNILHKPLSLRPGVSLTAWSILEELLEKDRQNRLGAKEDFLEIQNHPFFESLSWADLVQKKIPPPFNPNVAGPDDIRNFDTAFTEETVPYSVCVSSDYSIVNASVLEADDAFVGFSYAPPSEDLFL
To be noted: SGK3, 1 μM; read-out: % control. In outline: as §1

T2 sequence (Q9UM73 19-1620): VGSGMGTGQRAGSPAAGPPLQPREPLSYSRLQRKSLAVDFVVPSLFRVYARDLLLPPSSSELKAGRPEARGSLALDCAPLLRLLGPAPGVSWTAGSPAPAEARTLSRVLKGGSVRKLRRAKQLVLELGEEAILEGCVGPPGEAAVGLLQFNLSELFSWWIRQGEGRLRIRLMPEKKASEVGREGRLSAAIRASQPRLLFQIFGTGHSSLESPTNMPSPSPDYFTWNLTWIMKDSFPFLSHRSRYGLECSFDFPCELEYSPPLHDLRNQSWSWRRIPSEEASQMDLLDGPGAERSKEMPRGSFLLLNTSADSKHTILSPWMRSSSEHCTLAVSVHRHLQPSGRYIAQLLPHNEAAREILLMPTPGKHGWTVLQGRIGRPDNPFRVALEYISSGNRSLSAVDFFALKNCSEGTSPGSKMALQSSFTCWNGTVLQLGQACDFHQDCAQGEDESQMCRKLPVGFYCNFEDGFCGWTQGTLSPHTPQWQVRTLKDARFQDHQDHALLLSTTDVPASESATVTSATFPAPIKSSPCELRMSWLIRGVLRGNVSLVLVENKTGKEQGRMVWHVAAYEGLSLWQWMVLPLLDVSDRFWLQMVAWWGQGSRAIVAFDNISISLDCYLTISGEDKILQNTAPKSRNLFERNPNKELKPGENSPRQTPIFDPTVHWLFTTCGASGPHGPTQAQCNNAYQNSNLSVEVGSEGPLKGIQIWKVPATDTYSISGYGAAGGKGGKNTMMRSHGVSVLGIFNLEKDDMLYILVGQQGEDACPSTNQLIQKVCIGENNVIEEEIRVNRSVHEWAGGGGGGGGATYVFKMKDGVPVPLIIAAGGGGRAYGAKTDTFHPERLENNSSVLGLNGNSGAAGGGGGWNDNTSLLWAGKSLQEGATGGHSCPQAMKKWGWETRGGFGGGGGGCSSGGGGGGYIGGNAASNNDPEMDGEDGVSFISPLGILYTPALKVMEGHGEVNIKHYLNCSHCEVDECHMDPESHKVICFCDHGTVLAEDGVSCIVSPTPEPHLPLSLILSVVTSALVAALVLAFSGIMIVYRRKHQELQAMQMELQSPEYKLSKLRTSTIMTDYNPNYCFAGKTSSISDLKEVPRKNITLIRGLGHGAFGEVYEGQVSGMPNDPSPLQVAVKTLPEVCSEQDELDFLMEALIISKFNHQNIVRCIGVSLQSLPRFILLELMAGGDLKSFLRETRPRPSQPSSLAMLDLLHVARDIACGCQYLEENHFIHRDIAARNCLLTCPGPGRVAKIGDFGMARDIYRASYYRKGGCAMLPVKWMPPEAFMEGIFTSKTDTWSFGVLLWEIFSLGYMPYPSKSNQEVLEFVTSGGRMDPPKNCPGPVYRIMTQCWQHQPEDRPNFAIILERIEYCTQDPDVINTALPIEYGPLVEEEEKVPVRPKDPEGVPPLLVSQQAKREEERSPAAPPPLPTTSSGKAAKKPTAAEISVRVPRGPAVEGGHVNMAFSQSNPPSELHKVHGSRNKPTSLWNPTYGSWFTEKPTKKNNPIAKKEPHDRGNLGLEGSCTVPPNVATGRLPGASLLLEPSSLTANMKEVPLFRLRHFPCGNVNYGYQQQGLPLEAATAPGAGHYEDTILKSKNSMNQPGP
Sequence of MAP3K4 (Q9Y6R4 whole entry): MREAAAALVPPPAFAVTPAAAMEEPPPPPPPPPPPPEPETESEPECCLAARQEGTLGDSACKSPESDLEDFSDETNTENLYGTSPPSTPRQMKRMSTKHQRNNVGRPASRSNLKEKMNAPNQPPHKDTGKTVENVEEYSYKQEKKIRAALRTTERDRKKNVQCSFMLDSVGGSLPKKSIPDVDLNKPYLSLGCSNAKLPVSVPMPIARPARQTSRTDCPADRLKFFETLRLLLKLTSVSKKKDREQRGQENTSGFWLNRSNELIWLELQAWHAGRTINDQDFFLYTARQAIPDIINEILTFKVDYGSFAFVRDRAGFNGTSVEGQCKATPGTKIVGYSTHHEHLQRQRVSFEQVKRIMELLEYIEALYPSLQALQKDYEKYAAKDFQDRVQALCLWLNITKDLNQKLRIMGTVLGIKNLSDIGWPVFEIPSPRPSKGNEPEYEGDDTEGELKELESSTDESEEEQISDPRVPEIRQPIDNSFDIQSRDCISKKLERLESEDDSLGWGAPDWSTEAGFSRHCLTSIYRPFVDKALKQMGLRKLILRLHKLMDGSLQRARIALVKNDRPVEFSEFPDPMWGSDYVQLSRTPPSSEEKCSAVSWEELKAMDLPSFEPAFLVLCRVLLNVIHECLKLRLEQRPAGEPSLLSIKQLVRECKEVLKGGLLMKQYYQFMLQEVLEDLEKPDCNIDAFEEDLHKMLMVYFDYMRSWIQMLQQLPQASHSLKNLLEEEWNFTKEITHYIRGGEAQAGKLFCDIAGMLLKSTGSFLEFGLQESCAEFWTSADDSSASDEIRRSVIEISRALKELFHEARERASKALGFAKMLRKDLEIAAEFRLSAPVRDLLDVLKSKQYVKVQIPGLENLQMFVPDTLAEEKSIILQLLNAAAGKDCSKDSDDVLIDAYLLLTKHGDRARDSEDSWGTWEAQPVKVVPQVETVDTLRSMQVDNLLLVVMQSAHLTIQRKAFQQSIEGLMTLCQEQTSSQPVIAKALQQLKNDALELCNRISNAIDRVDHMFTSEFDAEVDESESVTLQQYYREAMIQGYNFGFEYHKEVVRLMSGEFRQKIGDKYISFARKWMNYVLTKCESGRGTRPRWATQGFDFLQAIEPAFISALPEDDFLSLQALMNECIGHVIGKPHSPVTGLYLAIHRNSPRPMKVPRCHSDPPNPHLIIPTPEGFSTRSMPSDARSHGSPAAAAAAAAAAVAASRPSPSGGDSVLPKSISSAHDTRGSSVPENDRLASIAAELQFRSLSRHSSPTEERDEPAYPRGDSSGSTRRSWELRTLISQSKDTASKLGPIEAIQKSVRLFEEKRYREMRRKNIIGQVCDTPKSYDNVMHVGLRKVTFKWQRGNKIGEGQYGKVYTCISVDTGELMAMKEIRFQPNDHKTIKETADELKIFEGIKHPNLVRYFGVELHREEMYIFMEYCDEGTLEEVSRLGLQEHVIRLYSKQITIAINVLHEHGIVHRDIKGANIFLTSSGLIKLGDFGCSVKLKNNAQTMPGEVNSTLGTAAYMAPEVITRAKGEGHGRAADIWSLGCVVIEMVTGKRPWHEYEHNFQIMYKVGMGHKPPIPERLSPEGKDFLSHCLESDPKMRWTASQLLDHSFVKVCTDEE
Sequence of EGFR(L747-E749del, A750P) (P00533 with tags, fused parts or gaps DEL747-749/A750P): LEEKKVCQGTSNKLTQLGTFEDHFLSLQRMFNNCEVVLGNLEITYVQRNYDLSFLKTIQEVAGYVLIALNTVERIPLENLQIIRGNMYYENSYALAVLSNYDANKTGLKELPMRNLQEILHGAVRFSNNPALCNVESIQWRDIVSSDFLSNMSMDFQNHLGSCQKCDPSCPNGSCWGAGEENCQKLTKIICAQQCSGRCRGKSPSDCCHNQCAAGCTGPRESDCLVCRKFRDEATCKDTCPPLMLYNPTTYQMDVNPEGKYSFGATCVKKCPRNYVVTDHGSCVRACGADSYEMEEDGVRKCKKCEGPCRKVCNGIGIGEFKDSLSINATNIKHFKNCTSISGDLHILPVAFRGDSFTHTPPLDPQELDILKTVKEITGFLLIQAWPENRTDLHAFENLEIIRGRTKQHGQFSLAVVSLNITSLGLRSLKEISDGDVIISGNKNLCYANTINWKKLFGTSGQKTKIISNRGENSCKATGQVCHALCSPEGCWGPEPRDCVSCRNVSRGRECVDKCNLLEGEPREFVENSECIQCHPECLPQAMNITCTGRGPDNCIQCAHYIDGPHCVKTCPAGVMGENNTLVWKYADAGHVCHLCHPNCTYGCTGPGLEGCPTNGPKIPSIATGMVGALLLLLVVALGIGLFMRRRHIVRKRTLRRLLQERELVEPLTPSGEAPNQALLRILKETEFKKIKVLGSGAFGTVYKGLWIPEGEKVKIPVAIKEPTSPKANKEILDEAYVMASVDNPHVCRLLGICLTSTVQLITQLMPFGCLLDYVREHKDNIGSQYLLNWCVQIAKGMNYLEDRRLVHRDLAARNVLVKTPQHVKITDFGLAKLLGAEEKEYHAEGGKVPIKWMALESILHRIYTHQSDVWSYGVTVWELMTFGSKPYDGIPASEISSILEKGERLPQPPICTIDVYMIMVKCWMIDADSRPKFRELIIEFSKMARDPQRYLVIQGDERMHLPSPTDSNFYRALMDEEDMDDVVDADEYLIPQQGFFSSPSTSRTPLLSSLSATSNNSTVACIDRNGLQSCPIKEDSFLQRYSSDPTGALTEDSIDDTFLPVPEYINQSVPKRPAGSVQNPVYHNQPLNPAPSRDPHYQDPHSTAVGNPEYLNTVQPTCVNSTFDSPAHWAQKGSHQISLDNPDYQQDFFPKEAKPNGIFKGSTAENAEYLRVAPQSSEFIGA
Sequence of CAMK1G (Q96NX5 whole entry): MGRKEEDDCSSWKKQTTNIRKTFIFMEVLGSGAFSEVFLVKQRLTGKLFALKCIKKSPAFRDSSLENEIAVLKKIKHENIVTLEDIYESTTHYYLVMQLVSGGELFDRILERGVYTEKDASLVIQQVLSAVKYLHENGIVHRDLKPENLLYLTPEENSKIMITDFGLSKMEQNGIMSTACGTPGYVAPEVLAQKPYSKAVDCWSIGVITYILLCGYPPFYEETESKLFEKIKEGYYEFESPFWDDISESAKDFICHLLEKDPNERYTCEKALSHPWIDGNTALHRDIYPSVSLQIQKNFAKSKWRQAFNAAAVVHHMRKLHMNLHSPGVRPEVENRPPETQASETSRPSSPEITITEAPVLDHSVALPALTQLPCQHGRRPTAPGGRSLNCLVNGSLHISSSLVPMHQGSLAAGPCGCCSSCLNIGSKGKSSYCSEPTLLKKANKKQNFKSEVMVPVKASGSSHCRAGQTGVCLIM

`CNc1c(-c2cnn([C@H]3CCN(C(C)=O)C[C@@H]3F)c2)cnc2[nH]cc(Cl)c12` [Compound 77, 1-((3S,4S)-4-(4-(3-chloro-4-(methylamino)-1H-pyrrolo[2,3-b]pyridin-5-yl)-1H-pyrazol-1-yl)-3-fluoropiperidin-1-yl)ethan-1-one]: the remaining binding at 1 µM in assay [1] is 100%; at ALK it was 40%; at BIKE, 0.4%; at CAMK1G, 100%; in assay [2], 100%; on FER it was 100%. Moreover, the remaining binding at 1 µM at FLT1 came out at 21%; at HIPK4, 84%; on IKK-epsilon it was 64%; on MAP3K4 it was 91%; on PFTAIRE2, 100%; on PIM2 it was 100%. The remaining binding at 1 µM on SGK3 is 37%.

As for `CNc1c(-c2ccc(C(=O)N3CCC(N4CCOCC4)CC3)cc2)cnc2[nH]cc(Cl)c12` [Compound 96, (4-(3-chloro-4-(methylamino)-1H-pyrrolo[2,3-b]pyridin-5-yl)phenyl)(4-morpholinopiperidin-1-yl)methanone], the remaining binding at 1 µM in [1] came to 100%; at ALK, 46%; on BIKE, 0.85%; at CAMK1G, 98%; in assay [2] it was 100%; at FER, 100%. The remaining binding at 1 µM at FLT1 stood at 33%; at HIPK4, 64%; on IKK-epsilon, 68%; on MAP3K4 it was 68%; on PFTAIRE2, 100%; at PIM2, 100%. On SGK3, the remaining binding at 1 µM came out at 48%.

With `O=C(c1ccc(-c2cnc3[nH]cc(Cl)c3c2NC2CCCC2)cc1)N1CCC(N2CCOCC2)CC1` [Compound 101, (4-(3-chloro-4-(cyclopentylamino)-1H-pyrrolo[2,3-b]pyridin-5-yl)phenyl)(4-morpholinopiperidin-1-yl)methanone], the remaining binding at 1 µM in assay [1] came out at 85%; at ALK, 75%; on BIKE, 6.8%; at CAMK1G, 93%; in [2], 88%; on FER, 100%. Moreover, the remaining binding at 1 µM on FLT1 was determined as 51%; on HIPK4 it was 79%; at IKK-epsilon it was 99%; at MAP3K4 it was 71%; on PFTAIRE2, 91%; on PIM2, 94%. At SGK3, the remaining binding at 1 µM worked out at 96%.
